Assay results published in ChEMBL document CHEMBL1158870, “Antitumor agents. 180. Chemical Studies and cytotoxic evaluation of cumingianosides and cumindysoside A, antileukemic triterpene glucosides with a 14,18-cycloapotirucallane skeleton” (1997).

Key:
CCRF-CEM = experiment: Cytotoxicity against human CCRF-CEM cells by SRB assay; format: functional
[1] = Cytotoxicity against human HL60(TB) cells by SRB assay; format: functional, HL-60(TB); settings: HL-60
K562 = experiment: Cytotoxicity against human K562 cells by SRB assay; format: functional
MOLT-4 = experiment: Cytotoxicity against human MOLT4 cells by SRB assay; format: functional
RPMI-8226 = experiment: Cytotoxicity against human RPMI8226 cells by SRB assay; format: functional
SR = experiment: Cytotoxicity against human SR cells by SRB assay; format: functional
A549 = experiment: Cytotoxicity against human A549 cells by SRB assay; format: functional
EKVX = experiment: Cytotoxicity against human EKVX cells by SRB assay; format: functional
HOP-62 = experiment: Cytotoxicity against human HOP62 cells by SRB assay; format: functional
HOP-92 = experiment: Cytotoxicity against human HOP92 cells by SRB assay; format: functional
NCI-H226 = experiment: Cytotoxicity against human NCI-H226 cells by SRB assay; format: functional
NCI-H23 = experiment: Cytotoxicity against human NCI-H23 cells by SRB assay; format: functional
NCI-H322M = experiment: Cytotoxicity against human NCI-H322M cells by SRB assay; format: functional
NCI-H460 = experiment: Cytotoxicity against human NCI-H460 cells by SRB assay; format: functional
NCI-H522 = experiment: Cytotoxicity against human NCI-H522 cells by SRB assay; format: functional
COLO 205 = experiment: Cytotoxicity against human COLO205 cells by SRB assay; format: functional
HCC 2998 = experiment: Cytotoxicity against human HCC2998 cells by SRB assay; format: functional
HCT-116 = experiment: Cytotoxicity against human HCT116 cells by SRB assay; format: functional
HCT-15 = experiment: Cytotoxicity against human HCT15 cells by SRB assay; format: functional
HT-29 = experiment: Cytotoxicity against human HT29 cells by SRB assay; format: functional
KM12 = experiment: Cytotoxicity against human KM12 cells by SRB assay; format: functional
SW-620 = experiment: Cytotoxicity against human SW620 cells by SRB assay; format: functional
SF-268 = experiment: Cytotoxicity against human SF268 cells by SRB assay; format: functional
SF-295 = experiment: Cytotoxicity against human SF295 cells by SRB assay; format: functional
SNB-19 = experiment: Cytotoxicity against human SNB19 cells by SRB assay; format: functional
SNB-75 = experiment: Cytotoxicity against human SNB75 cells by SRB assay; format: functional
U-251 = experiment: Cytotoxicity against human U251 cells by SRB assay; format: functional
LOX IMVI = experiment: Cytotoxicity against human LOXIMVI cells by SRB assay; format: functional
Malme-3M = experiment: Cytotoxicity against human MALME-3M cells by SRB assay; format: functional
M14 = experiment: Cytotoxicity against human M14 cells by SRB assay; format: functional

Work on COC(C)(C)[C@@H](O)[C@H](O)C[C@H](C)C1=C2CC[C@@H]3[C@@]4(C)CC[C@@H](OC(C)=O)C(C)(C)[C@@H]4C[C@@H](O[C@@H]4O[C@H](COC(C)=O)[C@@H](O)[C@H](O)[C@H]4O)[C@@]3(C)[C@]2(C)CC1 yielded a GI50 (CCRF-CEM) of 5.37 µM, a GI50 [1] of 3.63 µM and a GI50 (K562) of 6.03 µM. The GI50 (MOLT-4) was 5.13 µM, the GI50 (RPMI-8226) was 4.17 µM and the GI50 (SR) was 3.09 µM. For the same compound, the GI50 (A549) was 7.76 µM, the GI50 (EKVX) was 12.9 µM and the GI50 (HOP-62) was 14.5 µM. It also gave a GI50 (HOP-92) of 12.9 µM, a GI50 (NCI-H226) of 13.2 µM and a GI50 (NCI-H23) of 14.5 µM. For the same compound, the GI50 (NCI-H322M) was 12.9 µM, the GI50 (NCI-H460) was 9.12 µM and the GI50 (NCI-H522) was 12.3 µM. The GI50 (COLO 205) was 10.7 µM, the TGI (COLO 205) was 22.8 µM and the GI50 (HCC 2998) was 3.98 µM. The TGI (HCC 2998) was 13.4 µM, the GI50 (HCT-116) was 6.03 µM and the TGI (HCT-116) was 19.2 µM. For the same compound, the GI50 (HCT-15) was 11 µM, the TGI (HCT-15) was 23.8 µM and the GI50 (HT-29) was 5.13 µM. It also gave a TGI (HT-29) of 16.9 µM, a GI50 (KM12) of 3.55 µM and a TGI (KM12) of 18.9 µM. The GI50 (SW-620) was 15.8 µM, the TGI (SW-620) was 30.1 µM and the GI50 (SF-268) was 10.2 µM. The GI50 (SF-295) was 11.5 µM, the GI50 (SNB-19) was 12.3 µM and the GI50 (SNB-75) was 3.89 µM. The GI50 (U-251) was 5.37 µM, the GI50 (LOX IMVI) was 6.31 µM and the GI50 (Malme-3M) was 15.1 µM. The GI50 (M14) was 12.3 µM.
